Source: BindingDB's records for doi:10.1016/j.bmcl.2007.05.064 (Sungkyunkwan University, 2007)
pIC50: −log10 of the molar value.

Biological target: cGMP-specific 3',5'-cyclic phosphodiesterase (Homo sapiens, UniProt O76074)
Assay: Inhibition of PDE5

Compound `CCCc1nn(C)c2c(=O)[nH]c(-c3cc(S(=O)(=O)N4CCN(C)CC4)cc4c3OCO4)nc12` has a pIC50 of 6.37.
